We go through three compounds from ChEMBL document CHEMBL1201862, “PubChem BioAssay data set” (2004).

Experiment [1] has as its target Intestinal-type alkaline phosphatase (Mus musculus, UniProt P24822). The experiment can be described thus: PubChem AID 488785. The format is functional.
In experiment [2] the target is T1, Histone-lysine N-methyltransferase NSD2 (Homo sapiens, UniProt O96028).
T1 sequence (O96028 whole entry): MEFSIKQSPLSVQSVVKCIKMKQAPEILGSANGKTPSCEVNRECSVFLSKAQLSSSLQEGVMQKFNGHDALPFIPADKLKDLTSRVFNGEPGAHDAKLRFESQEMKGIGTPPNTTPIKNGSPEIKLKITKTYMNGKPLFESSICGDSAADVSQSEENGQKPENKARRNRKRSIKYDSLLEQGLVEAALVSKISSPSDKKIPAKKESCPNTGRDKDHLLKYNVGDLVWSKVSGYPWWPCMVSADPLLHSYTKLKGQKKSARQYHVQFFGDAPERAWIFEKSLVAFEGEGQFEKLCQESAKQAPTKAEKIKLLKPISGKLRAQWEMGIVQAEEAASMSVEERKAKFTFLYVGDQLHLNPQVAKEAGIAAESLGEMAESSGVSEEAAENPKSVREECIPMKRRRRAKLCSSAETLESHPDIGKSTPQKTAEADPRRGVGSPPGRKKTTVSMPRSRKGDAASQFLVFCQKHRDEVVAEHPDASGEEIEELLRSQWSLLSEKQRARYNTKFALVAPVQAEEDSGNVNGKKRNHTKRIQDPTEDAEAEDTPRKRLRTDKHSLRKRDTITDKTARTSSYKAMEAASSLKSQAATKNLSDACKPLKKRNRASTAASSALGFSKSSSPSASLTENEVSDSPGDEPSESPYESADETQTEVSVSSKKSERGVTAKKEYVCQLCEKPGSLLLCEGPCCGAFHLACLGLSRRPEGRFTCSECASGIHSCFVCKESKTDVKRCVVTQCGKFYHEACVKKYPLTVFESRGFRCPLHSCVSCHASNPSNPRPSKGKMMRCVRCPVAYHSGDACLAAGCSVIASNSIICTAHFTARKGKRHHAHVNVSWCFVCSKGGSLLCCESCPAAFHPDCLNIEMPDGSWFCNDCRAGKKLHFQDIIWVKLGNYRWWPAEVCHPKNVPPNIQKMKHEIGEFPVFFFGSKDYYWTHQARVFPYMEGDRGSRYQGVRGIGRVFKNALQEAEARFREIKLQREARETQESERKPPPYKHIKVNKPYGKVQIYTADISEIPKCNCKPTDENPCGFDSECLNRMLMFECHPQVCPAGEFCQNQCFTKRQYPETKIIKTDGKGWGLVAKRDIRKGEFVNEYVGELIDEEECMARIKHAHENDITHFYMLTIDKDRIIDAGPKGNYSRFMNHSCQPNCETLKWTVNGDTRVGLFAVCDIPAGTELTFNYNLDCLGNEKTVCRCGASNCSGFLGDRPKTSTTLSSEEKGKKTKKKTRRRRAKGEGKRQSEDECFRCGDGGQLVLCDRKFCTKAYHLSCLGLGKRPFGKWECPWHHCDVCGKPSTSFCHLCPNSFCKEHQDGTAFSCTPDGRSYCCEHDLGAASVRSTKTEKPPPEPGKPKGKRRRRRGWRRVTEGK
The format is biochemical.

Experiment [3] deals with T2, Alkaline phosphatase, tissue-nonspecific isozyme (Homo sapiens, UniProt P05186).
T2 sequence (P05186 whole entry): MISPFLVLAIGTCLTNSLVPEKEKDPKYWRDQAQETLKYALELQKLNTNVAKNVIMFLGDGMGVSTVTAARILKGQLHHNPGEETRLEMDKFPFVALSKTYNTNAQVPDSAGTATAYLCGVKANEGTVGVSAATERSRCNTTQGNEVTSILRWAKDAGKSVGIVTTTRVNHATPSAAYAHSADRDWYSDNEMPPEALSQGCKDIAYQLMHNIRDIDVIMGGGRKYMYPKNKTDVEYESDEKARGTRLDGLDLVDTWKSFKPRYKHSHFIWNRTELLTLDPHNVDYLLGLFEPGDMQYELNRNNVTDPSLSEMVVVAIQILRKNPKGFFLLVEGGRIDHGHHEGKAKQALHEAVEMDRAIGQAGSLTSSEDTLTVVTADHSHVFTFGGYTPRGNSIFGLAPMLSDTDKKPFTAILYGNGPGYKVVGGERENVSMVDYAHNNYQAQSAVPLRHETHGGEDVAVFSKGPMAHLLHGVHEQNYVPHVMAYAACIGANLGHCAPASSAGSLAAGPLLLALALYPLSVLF
The experiment can be described thus: TNAP enzyme inhibition by screening hits, dose response, selectivity assay for mouse IAP inhibitor project, biochemical, human TNAP, uHTS hits (AID 488906). The format is functional.

The target of experiment [4] is T3, Intestinal-type alkaline phosphatase (Homo sapiens, UniProt P09923). The experiment can be described thus: inhibition of human intestinal alkaline phosphatase – biochemical, dose response (AID 488876). The format is functional.
T3 sequence (P09923 whole entry): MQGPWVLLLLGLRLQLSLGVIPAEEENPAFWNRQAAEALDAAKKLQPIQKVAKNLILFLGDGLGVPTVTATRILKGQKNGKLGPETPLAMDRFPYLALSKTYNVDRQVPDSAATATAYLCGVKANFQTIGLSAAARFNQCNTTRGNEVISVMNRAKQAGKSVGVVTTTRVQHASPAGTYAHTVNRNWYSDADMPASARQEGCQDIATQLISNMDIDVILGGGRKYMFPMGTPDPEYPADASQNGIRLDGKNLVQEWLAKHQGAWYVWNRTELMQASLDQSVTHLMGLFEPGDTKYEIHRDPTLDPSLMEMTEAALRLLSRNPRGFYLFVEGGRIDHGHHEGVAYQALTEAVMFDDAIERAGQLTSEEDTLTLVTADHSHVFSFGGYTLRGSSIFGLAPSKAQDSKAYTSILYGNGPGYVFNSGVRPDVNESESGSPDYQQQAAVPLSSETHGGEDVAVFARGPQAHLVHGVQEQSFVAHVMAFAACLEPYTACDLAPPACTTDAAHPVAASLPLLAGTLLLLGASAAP
Experiment [5] can be described thus: Counterscreen for AddAB inhibitors: absorbance-based bacterial cell-based high throughput dose response assay for inhibitors of bacterial viability. [Related pubchem assays (depositor defined):AID435030, AID449728, AID449731, AID488942, AID488955, AID488956]. The experiment is classed as functional.
For another experiment, the target named is Exodeoxyribonuclease V (Escherichia coli (strain K12), UniProt P04993+P07648+P08394). The experiment can be described thus: E. coli RecBCD inhibitors, dose response, counter-screen for AddAB inhibitor project, absorbance, V66 E. coli, mutant T4 phage (AID 492957). The format is functional, cell-based, Escherichia coli str. K-12 substr. MG1655. (In general: Counterscreens check selectivity or assay interference.)
Exodeoxyribonuclease V, sequence (P04993 whole entry): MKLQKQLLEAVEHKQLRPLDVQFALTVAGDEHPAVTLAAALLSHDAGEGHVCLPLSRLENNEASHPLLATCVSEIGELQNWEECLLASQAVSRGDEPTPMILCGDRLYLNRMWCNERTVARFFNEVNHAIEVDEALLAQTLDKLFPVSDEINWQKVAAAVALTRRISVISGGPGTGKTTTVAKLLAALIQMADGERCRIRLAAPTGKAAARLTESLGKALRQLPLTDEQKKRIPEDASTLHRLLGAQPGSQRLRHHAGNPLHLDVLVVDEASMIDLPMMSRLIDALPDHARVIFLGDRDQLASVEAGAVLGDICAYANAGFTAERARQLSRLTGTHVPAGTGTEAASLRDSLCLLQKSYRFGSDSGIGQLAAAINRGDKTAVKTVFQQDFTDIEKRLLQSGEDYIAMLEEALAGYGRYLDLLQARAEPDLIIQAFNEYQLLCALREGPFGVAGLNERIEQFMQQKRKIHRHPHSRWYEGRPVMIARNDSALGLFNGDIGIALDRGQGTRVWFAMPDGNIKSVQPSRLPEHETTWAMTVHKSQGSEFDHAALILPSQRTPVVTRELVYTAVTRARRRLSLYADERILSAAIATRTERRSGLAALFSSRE
Exodeoxyribonuclease V, sequence (P07648 whole entry): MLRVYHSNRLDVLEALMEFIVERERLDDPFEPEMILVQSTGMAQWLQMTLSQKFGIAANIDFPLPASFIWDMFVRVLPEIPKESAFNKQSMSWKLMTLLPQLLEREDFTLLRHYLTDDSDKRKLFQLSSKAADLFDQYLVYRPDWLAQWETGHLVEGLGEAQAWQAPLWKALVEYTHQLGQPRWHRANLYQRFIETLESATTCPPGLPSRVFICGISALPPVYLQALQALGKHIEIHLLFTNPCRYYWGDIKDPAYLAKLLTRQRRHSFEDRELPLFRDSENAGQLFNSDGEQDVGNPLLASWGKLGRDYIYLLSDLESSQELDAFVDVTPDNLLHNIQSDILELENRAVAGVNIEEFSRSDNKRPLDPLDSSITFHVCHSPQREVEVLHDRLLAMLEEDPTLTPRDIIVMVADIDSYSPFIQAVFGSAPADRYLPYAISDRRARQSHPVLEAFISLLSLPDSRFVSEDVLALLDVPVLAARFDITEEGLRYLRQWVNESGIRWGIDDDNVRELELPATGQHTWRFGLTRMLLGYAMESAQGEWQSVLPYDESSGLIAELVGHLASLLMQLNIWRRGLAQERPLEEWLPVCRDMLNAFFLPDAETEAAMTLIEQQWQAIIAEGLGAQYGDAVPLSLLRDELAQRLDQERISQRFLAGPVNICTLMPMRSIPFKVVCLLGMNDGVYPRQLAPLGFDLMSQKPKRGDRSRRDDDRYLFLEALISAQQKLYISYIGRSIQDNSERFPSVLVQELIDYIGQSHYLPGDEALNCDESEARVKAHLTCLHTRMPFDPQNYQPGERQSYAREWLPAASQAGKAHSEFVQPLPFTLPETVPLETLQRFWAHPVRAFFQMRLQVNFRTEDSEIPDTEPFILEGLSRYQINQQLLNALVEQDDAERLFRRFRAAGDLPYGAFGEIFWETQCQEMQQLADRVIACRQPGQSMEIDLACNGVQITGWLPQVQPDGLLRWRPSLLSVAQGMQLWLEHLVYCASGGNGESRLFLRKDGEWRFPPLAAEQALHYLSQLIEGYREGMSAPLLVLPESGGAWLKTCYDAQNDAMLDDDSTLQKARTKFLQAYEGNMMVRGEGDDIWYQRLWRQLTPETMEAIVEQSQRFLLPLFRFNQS
Exodeoxyribonuclease V, sequence (P08394 whole entry): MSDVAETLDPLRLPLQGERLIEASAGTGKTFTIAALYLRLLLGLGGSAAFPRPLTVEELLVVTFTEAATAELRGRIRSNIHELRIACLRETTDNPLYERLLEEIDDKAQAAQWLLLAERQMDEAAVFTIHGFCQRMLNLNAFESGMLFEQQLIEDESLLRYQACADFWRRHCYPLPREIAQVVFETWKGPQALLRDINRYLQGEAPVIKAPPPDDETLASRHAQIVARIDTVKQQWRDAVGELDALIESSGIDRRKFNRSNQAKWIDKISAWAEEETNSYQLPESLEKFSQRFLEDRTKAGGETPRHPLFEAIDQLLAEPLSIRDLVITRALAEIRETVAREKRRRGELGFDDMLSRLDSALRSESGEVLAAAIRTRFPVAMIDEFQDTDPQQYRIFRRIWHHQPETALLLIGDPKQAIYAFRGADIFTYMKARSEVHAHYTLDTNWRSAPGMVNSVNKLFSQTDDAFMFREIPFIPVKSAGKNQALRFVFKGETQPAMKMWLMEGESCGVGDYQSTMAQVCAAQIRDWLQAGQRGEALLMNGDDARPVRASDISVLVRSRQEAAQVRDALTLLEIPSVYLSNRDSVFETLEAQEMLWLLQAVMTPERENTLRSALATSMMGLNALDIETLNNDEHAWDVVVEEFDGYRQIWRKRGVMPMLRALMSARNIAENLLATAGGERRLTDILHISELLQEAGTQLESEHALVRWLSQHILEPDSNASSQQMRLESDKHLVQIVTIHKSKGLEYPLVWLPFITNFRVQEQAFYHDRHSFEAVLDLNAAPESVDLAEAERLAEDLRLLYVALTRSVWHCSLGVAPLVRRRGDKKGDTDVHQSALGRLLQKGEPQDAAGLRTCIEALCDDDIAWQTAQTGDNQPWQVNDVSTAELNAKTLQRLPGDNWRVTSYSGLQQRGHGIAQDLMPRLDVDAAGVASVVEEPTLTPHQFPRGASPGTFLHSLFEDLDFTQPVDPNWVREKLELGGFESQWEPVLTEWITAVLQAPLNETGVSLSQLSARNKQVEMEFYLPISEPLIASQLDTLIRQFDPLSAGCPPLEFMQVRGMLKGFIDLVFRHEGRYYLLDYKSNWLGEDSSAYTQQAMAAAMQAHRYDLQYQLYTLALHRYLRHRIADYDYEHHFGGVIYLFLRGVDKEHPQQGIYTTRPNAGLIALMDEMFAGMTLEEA

The target of experiment [6] is T3, Intestinal-type alkaline phosphatase. The experiment in a line: Dose Response confirmation of uHTS hits from a small molecule inhibitors of human intestinal alkaline phosphatase via a luminescent assay. [Related pubchem assays (depositor defined):AID2544, AID2574]. The experiment is classed as functional.

Activity calls are given as the source filed them.

Intestinal-type alkaline phosphatase (Mus musculus, UniProt P24822), sequence (P24822 whole entry): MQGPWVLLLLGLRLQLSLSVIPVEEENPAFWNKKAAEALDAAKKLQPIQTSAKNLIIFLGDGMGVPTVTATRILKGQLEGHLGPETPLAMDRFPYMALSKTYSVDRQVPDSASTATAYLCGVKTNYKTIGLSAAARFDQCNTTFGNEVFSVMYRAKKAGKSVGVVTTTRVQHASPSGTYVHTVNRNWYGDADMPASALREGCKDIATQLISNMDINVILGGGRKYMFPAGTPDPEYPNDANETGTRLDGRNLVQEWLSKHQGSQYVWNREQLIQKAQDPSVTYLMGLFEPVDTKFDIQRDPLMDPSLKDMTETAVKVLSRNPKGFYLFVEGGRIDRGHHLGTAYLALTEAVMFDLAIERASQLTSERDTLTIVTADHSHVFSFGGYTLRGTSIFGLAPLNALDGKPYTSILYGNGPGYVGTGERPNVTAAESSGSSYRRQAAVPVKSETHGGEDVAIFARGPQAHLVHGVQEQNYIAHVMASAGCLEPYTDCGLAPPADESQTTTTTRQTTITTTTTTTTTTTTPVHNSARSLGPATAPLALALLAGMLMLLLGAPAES

Broadly, the IC50 is the concentration needed to halve the response being measured. The AC50 is the concentration giving half of the maximal activity seen. `CN1C(=O)NC(=O)/C(=C/c2ccc([N+](=O)[O-])o2)C1=O`: the IC50 was 43.8 µM (active) in experiment [1], > 100 µM (inactive) in experiment [3] and > 100 µM (inactive) in experiment [4]. In addition, the AC50 in experiment [2] was 15.4 µM (active).
As to `Cc1ccc(NC(=O)Cn2cnc3ccccc32)cc1C`, the IC50 (in experiment [5]; on Exodeoxyribonuclease V) was > 119 µM (inactive) throughout.
With `O=c1c(O[C@@H]2O[C@H](CO)[C@@H](O)[C@H](O)[C@H]2O)c(-c2ccc(O)c(O)c2)oc2cc(O)cc(O)c12` [ISOQUERCETIN], the IC50 in experiment [1] was 1.66 µM (active); in experiment [3] it was 14 µM (active); in experiment [6], 5.25 µM (active); in experiment [4] it was 8.96 µM (active).
